Drawing on paper PMC9560169, “The novel visual cycle inhibitor (±)-RPE65-61 protects retinal photoreceptors from light-induced degeneration” (PLoS ONE, 2022), this text covers Ki for one compound.

In this experiment the target is T1, RPE65 (Gallus gallus, UniProt Q9YGX2).
T1 construct: purified chicken recombinant RPE65
T1 sequence (Q9YGX2 1-533): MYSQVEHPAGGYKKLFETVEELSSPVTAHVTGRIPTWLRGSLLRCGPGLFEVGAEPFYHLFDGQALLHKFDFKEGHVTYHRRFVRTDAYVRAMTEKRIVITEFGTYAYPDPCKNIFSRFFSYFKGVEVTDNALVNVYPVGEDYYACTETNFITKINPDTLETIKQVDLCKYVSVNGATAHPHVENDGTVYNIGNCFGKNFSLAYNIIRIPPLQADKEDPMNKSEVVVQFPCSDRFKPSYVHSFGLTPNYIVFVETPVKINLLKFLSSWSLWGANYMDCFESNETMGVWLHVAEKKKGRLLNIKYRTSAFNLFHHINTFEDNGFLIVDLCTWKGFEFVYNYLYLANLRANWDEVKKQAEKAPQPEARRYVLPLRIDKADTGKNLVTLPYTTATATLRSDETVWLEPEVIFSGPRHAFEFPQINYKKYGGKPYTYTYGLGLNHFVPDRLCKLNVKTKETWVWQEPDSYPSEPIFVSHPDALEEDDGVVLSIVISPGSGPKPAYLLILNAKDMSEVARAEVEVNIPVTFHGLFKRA
Kind of experiment: liposome-based isomerohydrolase assay with all-trans-retinyl palmitate, HPLC of 11-cis-retinol, Lineweaver-Burk. It is filed as biochemical.

Molecules are shown by their SMILES.

`N=S(=O)(CCN)c1cccc(OCC2CCCCC2)c1` (racemic) [(±)-9, (±)-(2-aminoethyl)(3-(cyclohexylmethoxy)phenyl)(imino)-ƛ^6-sulfanone] registered an inhibitory constant (Ki) of 119 ± 11 nM.

In general, Ki refers to a dissociation constant, usually derived from enzyme kinetics or from competition with a known ligand.
